Results taken from patent US20020192201A1, “Crohn's disease treatment methods” (priority 1998, published 2002).
Read-outs that look alike come from different tables or passages of the source.

Tests used:
[1] = tested on: M. para. isolated from resected tissue of CD patients; experiment: in vitro test of seven antituberculosis drugs against M. para. using the Bactec system; format: cell-based, Mycobacterium paratuberculosis; settings: for MIC50 (50% M. para. cells inhibited or killed) / MIC99.9 (99.9% M. para. cells inhibited or killed): M. para. from resected tissue of CD patients
[2] = tested on: MAP-positive and MAP-negative Crohn's disease patients (ELISA); experiment: comparison of age-matched MAP-positive and MAP-negative patients at 1 year (CDAI); format: in vivo, human
Description: Another study was undertaken to compare age-matched MAP-positive and -negative patients utilizing ELISA analysis forserum antibodies to MAP. 10 MAP-positive and 10 MAP-negative patients were compared at 1 year, utilizing the CDAI score as a primary endpoint. The elimination of corticosteroids and the need for immunotherapy were considered secondary endpoints. […] Steroids were eliminated in 8 of 10 patients, with 2 patients requiring low-dose steroids. In the MAP-negative group at 1 year, 6 of 10 patients were in complete remission, with an entry CDAI score of 308 and an exit score of 179. Of the responsive patients, 3 of 6 required additional immunotherapy, and 3 remained on antibiotics alone.

Row | Molecule | Status (resistant/sensitive) ([1]; Bactec system) | MIC50 (50% M. para. cells inhibited or killed) ([1]; Bactec system) [µg/mL] | MIC99.9 (99.9% M. para. cells inhibited or killed) ([1]; Bactec system) [µg/mL] | Status (resistant/sensitive) [1] | outcome in patients unresponsive to antibiotics [2]
1 | NC[C@H]1O[C@H](O[C@H]2[C@H](O)[C@@H](O[C@H]3O[C@H](CO)[C@@H](O)[C@H](N)[C@H]3O)[C@H](N)C[C@@H]2N)[C@H](O)[C@@H](O)[C@@H]1O [KM, kanamycin] | R | <1.3 | <3.0 | – | –
2 | NC(=O)c1cnccn1 [PZA, pyrazinamide] | R | >20 | >20 | – | –
3 | CC[C@H]1OC(=O)[C@H](C)[C@@H](O[C@H]2C[C@@](C)(OC)[C@@H](O)[C@H](C)O2)[C@H](C)[C@@H](O[C@@H]2O[C@H](C)C[C@H](N(C)C)[C@H]2O)[C@](C)(OC)C[C@@H](C)C(=O)[C@H](C)[C@@H](O)[C@]1(C)O [CLR, clarithromycin] | – | <0.25 | <1.25 | S | –
4 | [H]/N=C(/N)N[C@H]1[C@H](O)[C@@H](O)[C@H](O[C@@H]2O[C@@H](C)[C@](O)(C=O)[C@H]2O[C@@H]2O[C@@H](CO)[C@H](O)[C@@H](O)[C@@H]2NC)[C@@H](N/C(N)=N\[H])[C@@H]1O [ST, streptomycin] | R | >0.4 | >3.0 | – | –
5 | CC[C@@H](CO)NCCN[C@@H](CC)CO [EMB, ethambutol] | S | <0.5 | <3.0 | – | –
6 | infliximab | – | – | – | – | induction of remission in all patients
7 | NNC(=O)c1ccncc1 [INH, isoniazid] | R | >20 | >20 | – | –
8 | CO[C@H]1/C=C/O[C@@]2(C)Oc3c(C)c(O)c4c(O)c(c(/C=N/N5CCN(C)CC5)c(O)c4c3C2=O)NC(=O)/C(C)=C\C=C\[C@H](C)[C@H](O)[C@@H](C)[C@@H](O)[C@@H](C)[C@H](OC(C)=O)[C@@H]1C [RIF, Rifampicin] | R | >1.0 | >2.6 | – | –
